Article PMC6325233, “A Novel Actin Binding Drug with In Vivo Efficacy” (Antimicrobial Agents and Chemotherapy, 2018)
Entries after “also recorded” stand apart in the source; their conditions may differ.

Tests used:
[1] = Murine model of vulvovaginal candidiasis, tolerability; type: in vivo, BALB/c mice
Description: (§1) The murine model of vulvovaginal candidiasis has been reported ([59]). A variation of this method was used. Three groups of six mice were used to evaluate two concentrations of occidiofungin (100 μg and 50 μg) and vehicle control (0.3% Noble agar). Briefly, 6- to 8-week-old BALB/c mice were treated subcutaneously with 200 ng per mouse of β-estradiol 17-valerate 3 days prior to inoculation with C. albicans (day −3). A subcutaneous dose of estradiol was administered every 3 days (day 0 [D0] and D3) until the end of the experiment to induce pseudoestrus. Intravaginal inoculations of approximately 20 μl of 2.5 × 10^6 CFU/ml of C. albicans were performed on D0 of the VVC study. On the same day of inoculation (D0), another subcutaneous injection of estradiol was made. A lyophilized powder of occidiofungin containing either 100 μg or 50 μg of occidiofungin was suspended in 20 μl of warm 0.3% Noble agar before the intravaginal inoculations. Drug treatments were performed on D2, D3, and D4 of the study. On day 5 (D5), the vaginal lumen was lavaged with 100 μl of sterile PBS with a 200-µl pipette tip. Serial dilutions and total CFU per vaginal lavage were determined by plating on YPD plates containing 50 μg/ml of chloramphenicol. Body weights, signs of vaginal irritation such as swelling or bleeding, and clinical signs of discomfort (stereotypical stretching behavior) were monitored. Statistical analyses (t tests) were performed to compare the control group to the treated groups and to compare differences between treated groups. All the analyses were 2 sided, with a P value of <0.05 considered statistically significant.

[2] = tested on: Saccharomyces cerevisiae BY4741; test: MIC susceptibility testing; type: cell-based
Description: (§2) Occidiofungin was purified from a liquid culture of Burkholderia contaminans MS14 as previously described ([21]). MIC susceptibility testing was performed according to the CLSI M27-A3 and M38-A2 standards for the susceptibility testing of yeasts and filamentous fungi, respectively. S. cerevisiae deletion mutants were obtained from the commercially available BY4741 deletion library (Thermo Scientific).
The addition of an alkyne reactive group to the primary amine on occidiofungin was performed initially at the Texas A&M Natural Products LINCHPIN Laboratory at Texas A&M University and subsequently at the CPRIT Synthesis and Drug-Lead Discovery Laboratory at Baylor University (see Fig. S1 in the supplemental material). A solution of triethylamine and acetonitrile was prepared by dissolving 10 µl of triethylamine in 11.7 ml of acetonitrile. A stock solution of acetonitrile and the reagents was prepared by adding 2,5-dioxopyrrolidin-1-yl hex-5-ynoate (1.40 mg, 6.69 µmole, 8.2 equivalent) to 1.08 ml of the triethylamine and acetonitrile solution prepared above. Occidiofungin (1 mg, 0.82 µmole, 1 equiv.) was added to the stock solution of acetonitrile and reagents (400 µl) containing triethylamine (0.34 µl, 2.46 µmole, 3 equiv.) and 2,5-dioxopyrrolidin-1-yl hex-5-ynoate ([…], 2.46 µmole, 3 eq). […]

[3] = tested on: Trichophyton rubrum 11199; test: MIC susceptibility testing (terbinafine-resistant strain); type: cell-based; details: CLSI M38-A2; 96 hours
Description: as §2

[4] = tested on: clinically relevant fungi; test: Spectrum of antifungal activity (summary); type: cell-based
Description: as §2

C. albicans = test: Murine model of vulvovaginal candidiasis, efficacy; type: in vivo, BALB/c mice infected with C. albicans
Description: as §1

S. cerevisiae Δbem2 = test: MIC against deletion mutant; type: cell-based; details: Rho-GAP for the CWI pathway
Description: as §2

S. cerevisiae Δrom2 = test: MIC against deletion mutant; type: cell-based; details: Rho1/2-GEF
Description: as §2

S. cerevisiae Δrdi1 = test: MIC against deletion mutant; type: cell-based; details: Rho GDP-inhibitor
Description: as §2

S. cerevisiae Δtpm2 = test: MIC against deletion mutant; type: cell-based; details: Actin filament binding, Tropomyosin
Description: as §2

S. cerevisiae Δtpm1 = test: MIC against deletion mutant; type: cell-based
Description: as §2

S. cerevisiae Δtus1 = test: MIC against deletion mutant; type: cell-based; details: Rho1p GEF
Description: as §2

S. cerevisiae Δrgl1 = test: MIC against deletion mutant; type: cell-based; details: Tus1p cofactor
Description: as §2

S. cerevisiae Δarc18 = test: MIC against deletion mutant; type: cell-based; details: ARP2/3 subunit
Description: as §2

S. cerevisiae Δmyo5 = test: MIC against deletion mutant; type: cell-based; details: Actin based motor activity, Type I motor
Description: as §2

S. cerevisiae Δcap2 = test: MIC against deletion mutant; type: cell-based; details: Barbed-end actin capping protein
Description: as §2

S. cerevisiae Δbnr1 = test: MIC against deletion mutant; type: cell-based; details: Actin nucleation, Formin
Description: as §2

S. cerevisiae Δabp1 = test: MIC against deletion mutant; type: cell-based; details: ARP2/3 activator
Description: as §2

[5] = intravaginal 100 and 50 µg, once per day for 3 days

occidiofungin
behavioral changes (sluggishness, stretching, reluctance to consume food) [1, 5]: No behavioral changes | vaginal bleeding or swelling [1, 5]: no vaginal bleeding or swelling was observed | signs of toxicity ([1]; treatment of murine vulvovaginal candidiasis): without any signs of toxicity | MIC ([2]; CLSI M27-A3, alkyne-OF vs native comparison (S2 Table)): 0.125 µg/mL | MIC ([2]; parent strain of deletion mutants (S4 Table)): 0.25 µg/mL | MIC, 80% inhibition [3]: 1 µg/mL | MIC, 100% inhibition [3]: 2 µg/mL | activity against filamentous fungi ([4]; Aspergillus, Mucor, Fusarium, Rhizopus, and azole- and terbinafine-resistant Trichophyton): active | activity against fluconazole- and caspofungin-resistant Candida ([4]; Candida albicans, Candida glabrata, Candida parapsilosis resistant to fluconazole and caspofungin): sensitive to occidiofungin | activity against caspofungin-resistant strains ([4]; Candida parapsilosis and C. neoformans resistant to caspofungin): susceptible to treatment with occidiofungin | activity against C. auris ([4]; strains of C. auris): sensitive to occidiofungin at submicromolar concentrations | activity against filamentous and nonfilamentous fungi ([4]; summary of Table S1): low micromolar inhibitory activity; also recorded: activity against filamentous and nonfilamentous fungi at submicromolar concentrations | spectrum of activities vs other clinically available antifungals ([4]; summary of Table S1): broader spectrum of activities | difference between the two treated groups (C. albicans; 100 vs 50 µg, P = 0.33): no statistically significant difference between the two treated groups | reduction in fungal load (C. albicans; intravaginal 100 and 50 µg in 0.3% Noble agar, once per day for 3 days, six mice per group, vs vehicle P < 0.001): 2 -log | efficacious concentration lower than azole-based treatment (C. albicans; vs azole-based treatment methods): 10 -fold | MIC (S. cerevisiae Δbem2): 0.25 µg/mL | MIC (S. cerevisiae Δrom2): 0.25 µg/mL | MIC (S. cerevisiae Δrdi1): 0.25 µg/mL | MIC (S. cerevisiae Δtpm2): 0.25 µg/mL | MIC (S. cerevisiae Δtpm1; Actin filament binding, Tropomyosin): 1.0 µg/mL | resistance to occidiofungin of Δtpm1 mutant (S. cerevisiae Δtpm1; vs parent, MIC): 4 -fold | MIC (S. cerevisiae Δtus1): 0.25 µg/mL | MIC (S. cerevisiae Δrgl1): 0.25 µg/mL | MIC (S. cerevisiae Δarc18): 0.25 µg/mL | MIC (S. cerevisiae Δmyo5): 0.25 µg/mL | MIC (S. cerevisiae Δcap2): 0.25 µg/mL | MIC (S. cerevisiae Δbnr1): 0.25 µg/mL | MIC (S. cerevisiae Δabp1): 0.25 µg/mL
